target: T1, KHK (Homo sapiens, UniProt P50053); test: Measurement of in vitro activity of KHK inhibitor (Transcreener ADP2 TR-FRET Red Assay); format: biochemical; details: purified His-tagged KHK expressed in E. coli; 30 min preincubation with inhibitor, 15 min substrate reaction; Morrison equation
T1 construct: His tag; made in house; host or cells: E. coli
T1 sequence (P50053 1-298): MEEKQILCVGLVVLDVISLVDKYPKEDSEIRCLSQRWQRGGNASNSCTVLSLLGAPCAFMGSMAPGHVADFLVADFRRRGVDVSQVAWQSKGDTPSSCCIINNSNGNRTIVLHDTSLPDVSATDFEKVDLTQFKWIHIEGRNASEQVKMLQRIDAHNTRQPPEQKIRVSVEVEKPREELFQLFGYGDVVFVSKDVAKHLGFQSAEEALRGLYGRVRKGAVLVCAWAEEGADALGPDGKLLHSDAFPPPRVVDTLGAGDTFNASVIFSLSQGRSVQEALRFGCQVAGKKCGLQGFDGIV
Protocol: KHK was expressed in E. coli, and purified using a His tag. To measure the activity of the purified KHK, a Transcreener ADP2 TR-FRET Red Assay kit of BellBrook Labs was used. The Transcreener ADP2 TR-FRET Red Assay kit is a method of measuring an amount of generated ADP using TR-FRET after proper concentrations of KHK and ATP, and a fructose-containing solution were reacted for 15 minutes. To measure the activity of a KHK inhibitor, KHK and a proper concentration of an inhibitor were first reacted for 30 minutes, and reacted with a solution containing a KHK substrate for 15 minutes. In addition, after the TR-FRET reaction for 1 hour, fluorescence was measured using an Envision apparatus of PerkinElmer. A setting value of the Envision apparatus was determined according to the TR-FRET optimization procedures published by BellBrook Labs.
The resulting value for each concentration of the KHK inhibitor is determined a ratio of a 665-nm wavelength and a 615-nm wavelength. Here, the 665/615 ratio was converted to an ADP concentration based on an ADP standard curve, and the inhibitory activity, a Ki value, was obtained using the Morrison equation in statistical software (Prizm).

Compound	Ki [nM]
C[C@H]1CCN1c1nc(N2CC3CC(C2)C3CC(=O)O)c2c(n1)C(C)(C)OC2 (stereo partly drawn) [Example 5, 2-(3-(7,7-dimethyl-2-((S)-2-methylazetidin-1-yl)-5,7-dihydrofuro[3,4-d]pyrimidin-4-yl)-3-azabicyclo[3.1.1]heptan-6-yl)acetic acid]	100 to 1000
C[C@@H]1OCc2c1nc(N1CC[C@@H]1C)nc2N1C[C@H]2C[C@@H](C1)[C@@H]2CC(=O)O [Example 6, 2-((1R,5S,6S)-3-((S)-7-methyl-2-((S)-2-methylazetidin-1-yl)-5,7-dihydrofuro [3,4-d]pyrimidin-4-yl)-3-azabicyclo[3.1.1]heptan-6-yl)acetic acid]	100 to 1000
C[C@@H]1OCc2c1nc(N1CC[C@@H]1C)nc2N1C[C@@H]2[C@@H](CC(=O)O)[C@@H]2C1 [Example 7, 2-((1R,5S,6S)-3-((S)-7-methyl-2-((S)-2-methylazetidin-1-yl)-5,7-dihydrofuro[3,4-d]pyrimidin-4-yl)-3-azabicyclo[3.1.0]hexan-6-yl)acetic acid]	100 to 1000
C[C@H]1CCN1c1nc(N2C[C@@H]3[C@@H](CC(=O)O)[C@@H]3C2)c2c(n1)C(F)(F)CC2 [Example 9, 2-((1R,5S,6S)-3-(7,7-difluoro-2-((S)-2-methylazetidin-1-yl)-6,7-dihydro-5H-cyclopenta[d]pyrimidin-4-yl)-3-azabicyclo[3.1.0]hexan-6-yl)acetic acid]	≤ 100
C[C@H]1CCN1c1nc(N2C[C@H]3C[C@@H](C2)[C@@H]3CC(=O)O)c2c(n1)C(F)(F)CCC2 [Example 10, 2-((1R,5S,6S)-3-(8,8-difluoro-2-((S)-2-methylazetidin-1-yl)-5,6,7,8-tetrahydroquinazolin-4-yl)-3-azabicyclo[3.1.1]heptan-6-yl)acetic acid]	≤ 100
C[C@H]1CCN1c1nc(N2C[C@@H]3[C@@H](CC(=O)O)[C@@H]3C2)c2c(n1)C(F)(F)CCC2 [Example 11, 2-((1R,5S,6S)-3-(8,8-difluoro-2-((S)-2-methylazetidin-1-yl)-5,6,7,8-tetrahydroquinazolin-4-yl)-3-azabicyclo[3.1.0]hexan-6-yl)acetic acid]	≤ 100
O=C(O)C[C@@H]1[C@H]2CN(c3nc(N4CCCC4)nc4c3CCCC4(F)F)C[C@@H]12 [Example 12, 2-((1R,5S,6S)-3-(8,8-difluoro-2-(pyrrolidin-1-yl)-5,6,7,8-tetrahydroquinazolin-4-yl)-3-azabicyclo[3.1.0]hexan-6-yl)acetic acid]	100 to 1000

Other lines, results leading:

Ki [nM]	Compound
≤ 100	C[C@H]1CCN1c1nc(N2C[C@H]3C[C@@H](C2)[C@@H]3CC(=O)O)c2c(c1C#N)CCC2 [Example 1, 2-((1R,5S,6S)-3-(4-cyano-3-((S)-2-methylazetidin-1-yl)-6,7-dihydro-5H-cyclopenta[c]pyridin-1-yl)-3-azabicyclo[3.1.1]heptan-6-yl)acetic acid]
≤ 100	C[C@H]1CCN1c1nc(N2C[C@H]3C[C@@H](C2)[C@@H]3CC(=O)O)c2c(c1C#N)CCCC2 [Example 2, 2-((1R,5S,6S)-3-(4-cyano-3-((S)-2-methylazetidin-1-yl)-5,6,7,8-tetrahydroisoquinolin-1-yl)-3-azabicyclo[3.1.1]heptan-6-yl)acetic acid]
≤ 100	C[C@H]1CCN1c1nc(N2CC3CC(C2)C3CC(=O)O)c2c(c1C#N)CCCCC2 (stereo partly drawn) [Example 3, 2-(3-(4-cyano-3-((S)-2-methylazetidin-1-yl)-6,7,8,9-tetrahydro-5H-cyclohepta[c]pyridin-1-yl)-3-azabicyclo[3.1.1]heptan-6-yl)acetic acid]
≤ 100	C[C@H]1CCN1c1nc(N2C[C@H]3C[C@@H](C2)[C@@H]3CC(=O)O)c2c(c1C#N)CCOC2 [Example 4, 2-((1R,5S,6S)-3-(5-cyano-6-((S)-2-methylazetidin-1-yl)-3,4-dihydro-1H-pyrano[3,4-c]pyridin-8-yl)-3-azabicyclo[3.1.1]heptan-6-yl)acetic acid]
≤ 100	C[C@H]1CCN1c1nc(N2C[C@H]3C[C@@H](C2)[C@@H]3CC(=O)O)c2c(n1)C(F)(F)CC2 [Example 8, 2-((1R,5S,6S)-3-(7,7-difluoro-2-((S)-2-methylazetidin-1-yl)-6,7-dihydro-5H-cyclopenta[d]pyrimidin-4-yl)-3-azabicyclo[3.1.1]heptan-6-yl)acetic acid]
